For the assay, the target named is T1, GST-AMPKα2/ß1/γ1 complex (full-length human AMPKα2) (Homo sapiens, UniProt P54619+P54646+Q9Y478).
T1 construct: purchased Carna Biosciences 02-114; host or cells: baculovirus expression system
T1 sequence (P54646 whole entry): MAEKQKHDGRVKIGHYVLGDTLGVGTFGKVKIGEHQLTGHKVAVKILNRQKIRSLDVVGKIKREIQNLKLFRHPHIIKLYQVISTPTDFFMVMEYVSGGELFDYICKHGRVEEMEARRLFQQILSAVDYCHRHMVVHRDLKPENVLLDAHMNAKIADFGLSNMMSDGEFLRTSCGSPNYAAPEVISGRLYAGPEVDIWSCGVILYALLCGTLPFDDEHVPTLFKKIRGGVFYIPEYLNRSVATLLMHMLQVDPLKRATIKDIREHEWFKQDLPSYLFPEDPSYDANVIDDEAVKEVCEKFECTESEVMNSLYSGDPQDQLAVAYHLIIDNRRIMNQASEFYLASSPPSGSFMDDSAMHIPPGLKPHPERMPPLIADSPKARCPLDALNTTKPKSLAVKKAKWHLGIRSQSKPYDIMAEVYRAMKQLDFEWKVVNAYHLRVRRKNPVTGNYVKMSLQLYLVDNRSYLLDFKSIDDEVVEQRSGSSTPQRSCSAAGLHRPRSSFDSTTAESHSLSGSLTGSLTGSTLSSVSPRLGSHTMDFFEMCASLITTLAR
T1 sequence (Q9Y478 whole entry partner): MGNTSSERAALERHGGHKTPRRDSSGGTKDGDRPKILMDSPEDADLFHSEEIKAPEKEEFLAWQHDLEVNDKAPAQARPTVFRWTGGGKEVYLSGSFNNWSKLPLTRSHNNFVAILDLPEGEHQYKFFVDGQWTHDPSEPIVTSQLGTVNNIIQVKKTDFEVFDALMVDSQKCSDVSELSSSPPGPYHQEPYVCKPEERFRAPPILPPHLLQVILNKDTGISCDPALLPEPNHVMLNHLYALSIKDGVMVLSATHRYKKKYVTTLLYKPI
T1 sequence (P54619 whole entry partner): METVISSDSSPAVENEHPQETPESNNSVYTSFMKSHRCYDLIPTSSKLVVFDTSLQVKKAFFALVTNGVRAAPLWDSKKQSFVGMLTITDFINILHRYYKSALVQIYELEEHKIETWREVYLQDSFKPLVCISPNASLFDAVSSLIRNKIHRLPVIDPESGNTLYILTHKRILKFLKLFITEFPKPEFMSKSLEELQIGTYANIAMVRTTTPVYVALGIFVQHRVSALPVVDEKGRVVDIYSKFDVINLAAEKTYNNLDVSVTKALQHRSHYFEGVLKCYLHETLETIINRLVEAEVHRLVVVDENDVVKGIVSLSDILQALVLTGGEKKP
The experiment in a line: AMPK high ATP assay (TR-FRET-based AMPK activity inhibition assay). The format is biochemical. Particulars: ATP concentration of 1 mM; median; read-out: AMPK high ATP assay IC50 [mol/l] (median). The protocol: AMPK inhibitory activity of compounds of the present invention at an ATP concentration of 1 mM was quantified employing the TR-FRET-based AMPK activity inhibition assay as described in the following paragraphs.
Recombinant fusion protein of N-terminal Glutathion-S-Transferase (GST) and full-length human AMPKα2 [1-552(end) amino acids of accession number NP_006243.2] co-expressed with GST-PRKAB1 [1-270(end) amino acids of accession number NP_006244.2] and PRKAG1 [1-331(end) amino acids of accession number NP_002724.1] using a baculovirus expression system, purified as GST-AMPKα2/ß1/γ1 complex by using glutathione sepharose chromatography, activated with His-tagged CaMKK1 and subsequently purified by using glutathione sepharose chromatography, was purchased from Carna Biosciences (product number 02-114) and used as kinase. As substrate for the kinase reaction biotinylated peptide biotin-Ahx-HMRSAMSFAEPG (C-terminus in amide form) was used which can be purchased e.g. form the company Biosyntan (Berlin-Buch, Germany). For the assay 50 nl of a 100 fold concentrated solution of the test compound in DMSO was pipetted into either a black low volume 384 well microtiter plate or a black 1536 well microtiter plate (both Greiner Bio-One, Frickenhausen, Germany), 2 μl of a solution of GST-AMPKα2/ß1/γ1 in aqueous assay buffer [50 mM Hepes pH 7.5, 10 mM MgCl2, 5 mM β-glycerophosphate, 2.5 mM dithiothreitol (DTT), 0.5 mM EGTA, 0.01% (w/v) bovine γ-globulin (Sigma-Aldrich, #G5009), 0.01% (v/v) Triton X-100 (Sigma-Aldrich, #T9284)] were added and the mixture was incubated for 15 min at 22° C. to allow pre-binding of the test compounds to the enzyme before the start of the kinase reaction. Then the kinase reaction was started by the addition of 3 μl of a solution of adenosine-tri-phosphate (ATP, 1.67 mM=>final conc. in the 5 μl assay volume is 1 mM), adenosine-mono-phosphate (AMP, 3.33 μM=>final conc. in the 5 μl assay volume is 2 μM), and substrate (0.83 μM=>final conc. in the 5 μl assay volume is 0.5 μM) in assay buffer and the resulting mixture was incubated for a reaction time of 30 min at 22° C. The concentration of GST-AMPK α2/ß1/γ1 was adjusted depending of the activity of the enzyme lot and was chosen appropriate to have the assay in the linear range, a typical concentration was 0.08 nM. The reaction was stopped by the addition of 3 μl of a solution of TR-FRET detection reagents (0.2 μM streptavidine-XL665 [Cisbio Bioassays, Codolet, France] and 3.33 nM anti-phosho-Serine antibody [Merck Millipore, “STK antibody”, cat. #35-002] and 3.33 nM anti mouse IgG-Tb cryptate, a Terbium-cryptate labelled anti-mouse IgG antibody [Cisbio Bioassays, Codolet, France] in an aqueous EDTA-solution (166.7 mM EDTA, 0.06 (w/v) bovine serum albumin in 50 mM HEPES pH 7.5).
The resulting mixture was incubated 1 h at 22° C. to allow the formation of complex between the phosphorylated biotinylated peptide and the detection reagents. Subsequently the amount of phosphorylated substrate was evaluated by measurement of the resonance energy transfer from the Tb-cryptate to the streptavidine-XL665. Therefore, the fluorescence emissions at 620 nm and 665 nm after excitation at 350 nm was measured in a TR-FRET reader, e.g. a Pherastar FS (BMG Labtechnologies, Offenburg, Germany) or a Viewlux (Perkin-Elmer). The ratio of the emissions at 665 nm and at […] was taken as the measure for the amount of phosphorylated substrate. The data were normalised (enzyme reaction without inhibitor=0 inhibition, all other assay components but no enzyme=100% inhibition).
Take `CCn1nc(C)cc1C(=O)Nc1n[nH]c2c(C(F)(F)F)c(F)c(C3C(C#N)=C(C)N(C)C(C)=C3C#N)cc12` [Example 33, N-[5-(3,5-dicyano-1,2,6-trimethyl-1,4-dihydropyridin-4-yl)-6-fluoro-7-(trifluoromethyl)-1H-indazol-3-yl]-1-ethyl-3-methyl-1H-pyrazole-5-carboxamide]: the IC50 came out at 25 nM.
As for `CCc1c(F)c(C2C(C#N)=C(C)N(C)C(C)=C2C#N)cc2c(NC(=O)c3c(F)cccc3F)n[nH]c12` [Example 26, N-[5-(3,5-dicyano-1,2,6-trimethyl-1,4-dihydropyridin-4-yl)-7-ethyl-6-fluoro-1H-indazol-3-yl]-2,6-difluorobenzamide], the IC50 stood at 38.1 nM.
Turning to `CCc1c(F)c(C2C(C#N)=C(C)N(C)C(C)=C2C#N)cc2c(NC(=O)c3c(Cl)cnn3C)n[nH]c12` [Example 29, 4-chloro-N-[5-(3,5-dicyano-1,2,6-trimethyl-1,4-dihydropyridin-4-yl)-7-ethyl-6-fluoro-1H-indazol-3-yl]-1-methyl-1H-pyrazole-5-carboxamide], the IC50 came out at 122 nM.
As for `CC1=C(C#N)C(c2cc3c(NC(=O)C(C)c4cccnc4)n[nH]c3c(C)c2F)C(C#N)=C(C)N1C` (racemic) [Example 21, (rac)-N-[5-(3,5-dicyano-1,2,6-trimethyl-1,4-dihydropyridin-4-yl)-6-fluoro-7-methyl-1H-indazol-3-yl]-2-(pyridin-3-yl)propanamide], the IC50 was 84 nM.
The figure for `CCn1nc(C)cc1C(=O)Nc1n[nH]c2c(C)c(F)c(C3C(C#N)=C(C)N(C)C(C)=C3C#N)cc12` [Example 5, N-[5-(3,5-dicyano-1,2,6-trimethyl-1,4-dihydropyridin-4-yl)-6-fluoro-7-methyl-1H-indazol-3-yl]-1-ethyl-3-methyl-1H-pyrazole-5-carboxamide] is 3.74 nM; for `CC1=C(C#N)C(c2cc3c(NC(=O)c4ccc(OCCN5CCCC5)cc4)n[nH]c3c(C)c2F)C(C#N)=C(C)N1C` [Example 13, N-[5-(3,5-dicyano-1,2,6-trimethyl-1,4-dihydropyridin-4-yl)-6-fluoro-7-methyl-1H-indazol-3-yl]-4-[2-(pyrrolidin-1-yl)ethoxy]benzamide] it is 13.4 nM.
As for `CC1=C(C#N)C(c2cc3c(NC(=O)c4cn(CC(C)(C)O)nc4C(F)(F)F)n[nH]c3c(C)c2F)C(C#N)=C(C)N1C` [Example 17, N-[5-(3,5-dicyano-1,2,6-trimethyl-1,4-dihydropyridin-4-yl)-6-fluoro-7-methyl-1H-indazol-3-yl]-1-(2-hydroxy-2-methylpropyl)-3-(trifluoromethyl)-1H-pyrazole-4-carboxamide], the IC50 was 7.95 nM.
As to `CCc1c(F)c(C2C(C#N)=C(C)N(C)C(C)=C2C#N)cc2c(NC(=O)c3ccnn3C(C)C)n[nH]c12` [Example 28, N-[5-(3,5-dicyano-1,2,6-trimethyl-1,4-dihydropyridin-4-yl)-7-ethyl-6-fluoro-1H-indazol-3-yl]-1-(propan-2-yl)-1H-pyrazole-5-carboxamide], the IC50 stood at 138 nM.
The figure for `CC1=C(C#N)C(c2cc3c(NC(=O)c4ccc(OCCN5CCCC5)cc4Cl)n[nH]c3c(I)c2F)C(C#N)=C(C)N1C` [Example 4, 2-chloro-N-[5-(3,5-dicyano-1,2,6-trimethyl-1,4-dihydropyridin-4-yl)-6-fluoro-7-iodo-1H-indazol-3-yl]-4-[2-(pyrrolidin-1-yl)ethoxy]benzamide] is 2.7 nM.
On to `CC1=C(C#N)C(c2cc3c(NC(=O)c4ccccc4Cl)n[nH]c3c(C)c2F)C(C#N)=C(C)N1C` [Example 6, 2-chloro-N-[5-(3,5-dicyano-1,2,6-trimethyl-1,4-dihydropyridin-4-yl)-6-fluoro-7-methyl-1H-indazol-3-yl]benzamide], for which the IC50 stood at 3.65 nM.
Regarding `CC1=C(C#N)C(c2cc3c(NC(=O)c4ccccc4Cl)n[nH]c3c(C(F)(F)F)c2F)C(C#N)=C(C)N1C` [Example 32, 2-chloro-N-[5-(3,5-dicyano-1,2,6-trimethyl-1,4-dihydropyridin-4-yl)-6-fluoro-7-(trifluoromethyl)-1H-indazol-3-yl]benzamide], the IC50 is 10.5 nM.
Consider `CCn1nc(C)cc1C(=O)Nc1n[nH]c2c(I)c(F)c(C3C(C#N)=C(C)N(C)C(C)=C3C#N)cc12` [Example 1, N-[5-(3,5-dicyano-1,2,6-trimethyl-1,4-dihydropyridin-4-yl)-6-fluoro-7-iodo-1H-indazol-3-yl]-1-ethyl-3-methyl-1H-pyrazole-5-carboxamide], for which the IC50 stood at 62.6 nM.
As for `COCCn1cc(C(=O)Nc2n[nH]c3c(C)c(F)c(C4C(C#N)=C(C)N(C)C(C)=C4C#N)cc23)c(C(F)(F)F)n1` [Example 15, N-[5-(3,5-dicyano-1,2,6-trimethyl-1,4-dihydropyridin-4-yl)-6-fluoro-7-methyl-1H-indazol-3-yl]-1-(2-methoxyethyl)-3-(trifluoromethyl)-1H-pyrazole-4-carboxamide], the IC50 worked out at 7.76 nM.
With `CCc1ccccc1C(=O)Nc1n[nH]c2c(CC)c(F)c(C3C(C#N)=C(C)N(C)C(C)=C3C#N)cc12` [Example 27, N-[5-(3,5-dicyano-1,2,6-trimethyl-1,4-dihydropyridin-4-yl)-7-ethyl-6-fluoro-1H-indazol-3-yl]-2-ethylbenzamide], the IC50 turned out to be 59.5 nM.
For the molecule `CC1=C(C#N)C(c2cc3c(NC(=O)c4cn(C)nc4C(F)(F)F)n[nH]c3c(C)c2F)C(C#N)=C(C)N1C` [Example 9, N-[5-(3,5-dicyano-1,2,6-trimethyl-1,4-dihydropyridin-4-yl)-6-fluoro-7-methyl-1H-indazol-3-yl]-1-methyl-3-(trifluoromethyl)-1H-pyrazole-4-carboxamide], the IC50 turned out to be 12.2 nM.
Consider `CC1=C(C#N)C(c2cc3c(NC(=O)c4cn(C)nc4C(F)(F)F)n[nH]c3c(I)c2F)C(C#N)=C(C)N1C` [Example 3, N-[5-(3,5-dicyano-1,2,6-trimethyl-1,4-dihydropyridin-4-yl)-6-fluoro-7-iodo-1H-indazol-3-yl]-1-methyl-3-(trifluoromethyl)-1H-pyrazole-4-carboxamide], for which the IC50 came out at 54.3 nM.
In the case of `CC1=C(C#N)C(c2cc3c(NC(=O)c4cc(F)ccc4C(F)(F)F)n[nH]c3c(C)c2F)C(C#N)=C(C)N1C` [Example 10, N-[5-(3,5-dicyano-1,2,6-trimethyl-1,4-dihydropyridin-4-yl)-6-fluoro-7-methyl-1H-indazol-3-yl]-5-fluoro-2-(trifluoromethyl)benzamide], the IC50 is 26.2 nM.
With `COC(=O)C12C3C4C1C1C2C3C41C(=O)Nc1n[nH]c2c(C)c(F)c(C3C(C#N)=C(C)N(C)C(C)=C3C#N)cc12` (centres unmarked) [Example 22, methyl 4-{[5-(3,5-dicyano-1,2,6-trimethyl-1,4-dihydropyridin-4-yl)-6-fluoro-7-methyl-1H-indazol-3-yl]carbamoyl}cubane-1-carboxylate], the IC50 worked out at 65.6 nM.
The figure for `CCc1ccccc1C(=O)Nc1n[nH]c2c(C)c(F)c(C3C(C#N)=C(C)N(C)C(C)=C3C#N)cc12` [Example 8, N-[5-(3,5-dicyano-1,2,6-trimethyl-1,4-dihydropyridin-4-yl)-6-fluoro-7-methyl-1H-indazol-3-yl]-2-ethylbenzamide] is 15.1 nM; for `CC1=C(C#N)C(c2ccc3[nH]nc(NC(=O)c4ccccc4)c3c2)C(C#N)=C(C)N1` [Reference Example 1, N-[5-(3,5-dicyano-2,6-dimethyl-1,4-dihydropyridin-4-yl)-1H-indazol-3-yl]benzamide, reference compound] it is 279 nM.

The values above are taken from US20210047297A1, “4-(3-AMINO-6-FLUORO-1H-INDAZOL-5-YL)-1,2,6-TRIMETHYL-1,4-DIHYDROPYRIDINE-3,5-DIC ARBONITRILE COMPOUNDS FOR TREATING HYPERPROLIFERATIVE DISORDERS” (Bayer Pharma Aktiengesellschaft, priority 2018, published 2021).
